US20120058935A1, “ANTIMICROBIAL COMPOSITIONS AND METHODS OF USE THEREFORE” (priority 2009, published 2012)
Values after ≈ are worked out from the molar mass of the structure shown. Where two headings read alike, the source gives them in different places. Ends that are not written are not given here.

Assays:
[1] = clinical trial, AD patients, ref. [34]; cited from earlier work
12 microorganisms = experiment: Antimicrobial activity against the panel of 12 microorganisms (summary); assay type: cell-based; details: summary in words of the MIC experiments
Procedure: Peptide antimicrobial activity was determined as minimal inhibitory concentration (MIC). Experiments identified peptide MIC by broth microdilution susceptibility test in conjunction with CFU and alamar blue assays. Inoculum containing mid-logarithmic phase cells was dispensed into the wells of polypropylene 96-well plates (Fisher, Pittsburgh, Pa.) containing seven two-fold dilutions of test peptide in growth media. Plates were then incubated aerobically overnight (12 to 18 hrs) at 37° C. Peptide MIC was taken as the lowest concentration able reduce cell growth by CFU and alamar blue assays by at least two-fold and which correlated with the visible loss of a growth button on the bottom of microtiter wells. Experiments were repeated a minimum of three times for each organism, and tests included at least three replicates for each assay condition. Experiments included control serial dilutions of buffer vehicle alone.

Streptococcus pyogenes = assay type: cell-based
Procedure: (§1) Bacteria were cultured aerobically in Mueller-Hinton broth (MHB), Brain and Heart Infusion broth (BHIB), or BHIB supplemented with 1% lysed horse blood and plated on Tryptone Soy Agar (TSA) plates containing 5% defibrinated sheep blood. […] Organisms were subcultured for 2 hrs to generate mid-logarithmic growth cultures for use as inoculates in experiments.
(§2) Bacteria inoculum cell densities were normalized to 5×10^5 cells/ml immediately before use photometrically and subsequently confirmed by colony count. Inoculum of C. albicans contained a cell density of 2.5×10^3 CFU/ml.
(§3) Bulk powdered peptides were first dissolved in 30% trifluoroethanol (TFE) at 1 mg/ml. […] Stock solutions at 2 mg/ml were prepared the day of experimentation from the peptide films by solubilizing a second time in either water or 20% TFE. Aβ stocks prepared in water were sonicated and insoluble peptide aggregates pelleted by centrifugation (10 min×16,000 g). Peptide concentrations in stock solutions were determined immediately before use by bicinchoninic acid (BCA) protein assay. […] For MIC experiments, peptides were serially diluted into growth media. For other experiments stocks were diluted into required working buffers. Experiments included controls for peptide buffer vehicle alone.
(§4) Experiments identified peptide MIC by broth microdilution susceptibility test in conjunction with CFU and alamar blue assays. […] Peptide MIC was taken as the lowest concentration able reduce cell growth by CFU and alamar blue assays by at least two-fold and which correlated with the visible loss of a growth button on the bottom of microtiter wells. Experiments were repeated a minimum of three times for each organism, and tests included at least three replicates for each assay condition. Experiments included control serial dilutions of buffer vehicle alone.

[2] = system: Staphylococcus epidermidis; assay type: cell-based
Procedure: as §1, §2, §3, §4

Pseudomonas aeruginosa = assay type: cell-based
Procedure: as §1, §2, §3, §4

Enterococcus faecalis = assay type: cell-based
Procedure: as §1, §2, §3, §4

Listeria monocytogenes = assay type: cell-based
Procedure: as §1, §2, §3, §4

Candida albicans = assay type: cell-based
Procedure: as §1, §2, §3, §4

E. faecalis = E. faecalis growth curves with peptide (CFU with time); assay type: cell-based, Enterococcus faecalis; details: 25 μg/ml peptide; CFU counted with time (FIG. 1)
Procedure: Bacterial growth with time was monitored by inoculation of agar with diluted incubants and counting CFU. Representative data from six experiments is shown as mean signal of four replicates±s.e.m.
CFU assay; Serial dilutions of incubants were prepared and streaked onto the surface of agar. The agar plates were then incubated overnight at 37° C. and colonies forming units counted.

Staphylococcus aureus = assay type: cell-based; details: ATCC 25923; MHB; 12 hrs incubation at 37° C.
Procedure: as §1, §2, §3, §4

Streptococcus salivarius = assay type: cell-based; details: ATCC 13419; BHIB/LHB; 12 hrs incubation at 37° C.
Procedure: as §1, §2, §3, §4

Streptococcus mitis = assay type: cell-based; details: ATCC 6249; BHIB/LHB; 12 hrs incubation at 37° C.
Procedure: as §1, §2, §3, §4

Streptococcus pneumoniae = assay type: cell-based; details: ATCC 49619; BHIB/LHB; 12 hrs incubation at 37° C.
Procedure: as §1, §2, §3, §4

Escherichia coli = assay type: cell-based; details: ATCC 25922; BHIB; 12 hrs incubation at 37° C.
Procedure: as §1, §2, §3, §4

Streptococcus agalactiae = assay type: cell-based; details: ATCC 12386; BHIB/LHB; 12 hrs incubation at 37° C.
Procedure: as §1, §2, §3, §4

Row | Molecule | Inhibition of microbial growth, panel of 12 microorganisms (12 microorganisms) | MIC against Streptococcus pyogenes (Streptococcus pyogenes; 18 h) | MIC against Staphylococcus epidermidis ([2]; 18 h) | MIC against Pseudomonas aeruginosa (Pseudomonas aeruginosa; 18 h) | MIC against Enterococcus faecalis (Enterococcus faecalis; 18 h) | MIC against Listeria monocytogenes (Listeria monocytogenes; 18 h) | MIC against Candida albicans (Candida albicans; 18 h) | other results
1 | C[C@@H](C(=O)O)c1ccc(-c2ccccc2)c(F)c1 [tarenflurbil] |  |  |  |  |  |  |  | Rates of infection in patients receiving the drug [1]: significantly increased rates of infection
2 | DAEFGHDSGFEVRHQKLVFFAEDVGSNKGAIIGLMVGGVVIA [roAβ42] | demonstrated antimicrobial activity | >50 µg/mL | 3.13 µg/mL | >50 µg/mL | 3.13 µg/mL | 6.25 µg/mL | 0.78 µg/mL | 
3 | AIVVGGVMLGIIAGKNSGVDEAFFVLKQHHVEYGSDHRFEAD [reAβ42] | not inhibited | >50 µg/mL | >50 µg/mL | >50 µg/mL | 50 µg/mL | >50 µg/mL | >25 µg/mL | 
4 | CC[C@H](C)[C@H](NC(=O)[C@H](CCCCN)NC(=O)[C@H](CCC(=O)O)NC(=O)[C@H](CCCCN)NC(=O)[C@H](CO)NC(=O)[C@H](CCCCN)NC(=O)[C@H](CCCNC(=N)N)NC(=O)[C@H](Cc1ccccc1)NC(=O)[C@H](Cc1ccccc1)NC(=O)[C@H](CC(=O)O)NC(=O)CNC(=O)[C@H](CC(C)C)NC(=O)[C@@H](N)CC(C)C)C(=O)NCC(=O)N[C@@H](CCCCN)C(=O)N[C@@H](CCC(=O)O)C(=O)N[C@@H](Cc1ccccc1)C(=O)N[C@@H](CCCCN)C(=O)N[C@@H](CCCNC(=N)N)C(=O)N[C@H](C(=O)N[C@H](C(=O)N[C@@H](CCC(N)=O)C(=O)N[C@@H](CCCNC(=N)N)C(=O)N[C@H](C(=O)N[C@@H](CCCCN)C(=O)N[C@@H](CC(=O)O)C(=O)N[C@@H](Cc1ccccc1)C(=O)N[C@@H](CC(C)C)C(=O)N[C@@H](CCCNC(=N)N)C(=O)N[C@@H](CC(N)=O)C(=O)N[C@@H](CC(C)C)C(=O)N[C@H](C(=O)N1CCC[C@H]1C(=O)N[C@@H](CCCNC(=N)N)C(=O)N[C@H](C(=O)N[C@@H](CCC(=O)O)C(=O)N[C@@H](CO)C(=O)O)[C@@H](C)O)C(C)C)[C@@H](C)CC)C(C)C)[C@@H](C)CC [LL-37] |  |  |  |  |  |  |  | Mode of action on E. faecalis growth (bacteriostatic or bactericidal) (E. faecalis): potent bactericidal activity; MIC against Staphylococcus aureus (Staphylococcus aureus): 6.25 µg/mL (≈ 1.39 µM); MIC against Streptococcus pyogenes (Streptococcus pyogenes; ATCC 19615, BHIB/LHB, 18 hrs incubation at 37° C.): 6.25 µg/mL (≈ 1.39 µM); MIC against Staphylococcus epidermidis ([2]; ATCC 12228, BHIB, 18 hrs incubation at 37° C.): 25 µg/mL (≈ 5.56 µM); MIC against Streptococcus salivarius (Streptococcus salivarius): 50 µg/mL (≈ 11.1 µM); MIC against Streptococcus mitis (Streptococcus mitis): 6.25 µg/mL (≈ 1.39 µM); MIC against Streptococcus pneumoniae (Streptococcus pneumoniae): 1.56 µg/mL (≈ 0.347 µM); MIC against Pseudomonas aeruginosa (Pseudomonas aeruginosa; ATCC 27853, BHIB, 18 hrs incubation at 37° C.): 6.25 µg/mL (≈ 1.39 µM); MIC against Escherichia coli (Escherichia coli): 1.56 µg/mL (≈ 0.347 µM); MIC against Enterococcus faecalis (Enterococcus faecalis; ATCC 29212, BHIB, 18 hrs incubation at 37° C.): 6.25 µg/mL (≈ 1.39 µM); MIC against Listeria monocytogenes (Listeria monocytogenes; ATCC 19112, BHIB, 18 hrs incubation at 37° C.): 25 µg/mL (≈ 5.56 µM); MIC against Candida albicans (Candida albicans; ATCC 10231, RPMI-1640, 18 hrs incubation at 37° C.): 6.25 µg/mL (≈ 1.39 µM); MIC against Streptococcus agalactiae (Streptococcus agalactiae): 12.5 µg/mL (≈ 2.78 µM)
5 | recAβ42: Recombinant human Aβ42 purchased from rPeptide | Equivalent findings |  |  |  |  |  |  | 
